According to patent US10821276B2, “System and method to locally deliver therapeutic agent to inner ear” (The Trustees of Columbia University in the City of New York, priority 2012, dated 2020):
Where “and” joins values, the source holds several entries; their conditions need not be identical. Identical values can stand only once.

Experiments:
[1] = intact RWM, cited from earlier work
[2] = Diffusion of 500 μM rhodamine B across RWM in Franz Cell, with and without manual perforation (10 μm / 100 μm needle); assay type: in vitro ADME, guinea pig
Method: In another embodiment, a model for measuring diffusion across a guinea pig RWM, was developed and tested. The model is applicable for analysis of the RWM both with and without microperforations. Semicircular canals were removed from the pigs and RWM exposed prior to perforation. In the exemplary embodiment, the cochlea, sparing the RWM, was embedded in a 3D-printed acrylic holder using hybrid dental composite and light cured to adapt the round window niche to a 3 ml Franz™ Cell. The Franz™ Cell is a widely recognized standardized method for studying transdermal drug delivery. Microperforations were created with a 10 μm diameter needle (as shown in FIG. 32) and examined with fluorescent light microscopy (FSX-100, as shown in FIG. 31) as a function of time exposure.
In the exemplary embodiment show in FIGS. 33-34, a Franz Cell was customized in accordance with the present disclosure to include an adapter to allow analysis of a very small membrane in the Franz Cell. The adaptor depicted in FIGS. 33B and 34 was manufactured with a 3-dimensional printer, though alternative manufacturing techniques (and suitable materials) are contemplated to be within the scope of the disclosure. The adaptor includes a downwardly extending protrusion or lip (see reference numerals “A” and “B” in FIG. 33) which are configured to engage the Receptor portion of the Franz Cell.
Similarly, FIGS. 37A-C illustrate various Z-stacked perforation images which were compiled from 60 images taken at 5 μm intervals of RWM with perforation: A) bright field microscopy; B) bright field microscopy post diffusion with RhoB; C) Fluorescent microscopy
Manual perforations made with 10 μm needle tip produce an elliptical hole (see arrow in FIG. 38) with axes 30 μm (26-34)×47 μm (44-50). In one example, a manual perforation with 100 μm needle tip created an elliptical tear in the membrane Measuring […]×460 μm, as shown in FIG. 38 (in which the dot “D” indicates tip size).

[3] = Diffusion of 1 mM Rhodamine B across RWM in static Franz diffusion cells, with and without 12.5 μm microperforation; assay type: in vitro ADME, guinea pig; conditions: for time to reach 10 μM: expected
Method: The diffusion across guinea pig RWM, with and without microperforation, was developed and tested: cochleae, sparing the RWM, were embedded in 3D-printed acrylic holders using hybrid dental composite and light cured to adapt the round window niche to 3 ml Franz diffusion cells. Perforations were created with 12.5 μm diameter needles and examined with light microscopy. Diffusion of 1 mM Rhodamine B across RWM in static diffusion cells was measured via fluorescence microscopy.
In order to carry out this analysis, diffusion of RhoB through the RWM was performed on 12 Hartley Strain Guinea Pigs in a modified diffusion cell at room temperature. Franz™ Cell-type diffusion cells (PermeGear, Inc., Hellertown, Pa.) are made of borosilicate glass and have a 5 mm orifice and a 3 ml receptor volume with flat ground joints (FIG. 30). The cell consists of three parts (FIG. 33): donor chamber, membrane, and receptor chamber.
The donor chamber was filled with 0.3 ml of 1 mM RhoB in PBS meeting the conditions for continuous infinite dosing. Donor chamber was covered with Parafilm® for the duration of the experiment. Drug application surface was determined by size of RWM.
Guinea pig RWM was embedded in an acrylic holder with dental composites (FIG. 34). The acrylic holder was designed and 3D printed (Objet 24, Stratasys, MN) to allow for adaptation of the round window niche containing RWM to the diffusion cell. Dental composites (Dentsply, Milford, Del.) included primer (Prime & Bond® NT™) and a urethane modified Bis-GMA resin (TPH Spectra™) which were light cured at 20 s intervals with a 470 nm light emitting diode greater than 500 mW/cm^2. The diffusion cell was assembled with two custom expanded Polytetraflurane (PTFE) gaskets, 1.5 mm thick, to prevent leakage from the donor or receptor chambers at the diffusion cell/membrane interface. The acrylic holder was tested for reactivity with RhoB and was inert for >48 hours. The RWM was equilibrated in PBS solution for 30 minutes prior to application of RhoB. Membranes were embedded and equilibrated within 2 hours of euthanasia.
Microperforations were introduced in the RWM with manual application of a minutien insect pin (Size 000, 12.5 μm diameter tip, 250 μm diameter shaft) under a binocular microscope. All membranes were imaged before and after diffusion study using bright field, phase contrast or fluorescent microscopy and Z-stacking. Imaging was used to confirm the presence or absence of membrane perforation. 60 images at […] intervals were taken and compiled to create one image. ImageJ (Rasband, W. S., Image J, U.S. National Institutes of Health, Bethesda, Md.) was used to calculate the size of the membrane and, if present, perforation.
The receptor chamber was filled with 3 ml of PBS and continuously stirred at 650 rpm with a cylindrical Teflon® magnetic stirbar to allow rapid mixing of contents without development of a vortex. Sampling port allowed for extraction of fluid samples at various time points to monitor progression of diffusion. The set up and sampling conditions were validated for consistency in the following categories: 1) diffusion cell dimensions, 2) stir bar speed, and 3) sampling frequency, to increase the precision of results across experiments^23.
Sampling of the receiver chamber was made at 12 predetermined times over 24 hours and analyzed with fluorescent microscopy. At each time point 90 μL was removed using a stretched syringe from the center of the receptor chamber and the volume was replaced with 90 μL of fresh PBS. These diffusion experiments are considered static as solution from the receptor chamber is renewed by removal of a set quantity (90 μL) at sampling times and replacement of this volume with fresh medium. The removed 90 μL was then diluted with 360 μL PBS to reduce the effects of evaporation and maintain concentrations within the acceptable detection range of the microscope. The samples were placed on a tilt table to enhance mixing after dilution. […]

[4] = cited from earlier work; for D: diffusion coefficient
[5] = Permeability of one pore estimated from diffusion coefficient and membrane thickness (P=D/h); 1% area perforation improvement; conditions: for Ppore: D/h, membrane thickness 10 μm, guinea pig
Excerpt: From Fick's first law, diffusion is described by J=−D∇ϕ (1) where J is diffusion flux in mol/m^2*s, D is the diffusion coefficient in m^2/s, and ϕ is the concentration in mol/l. Then from a one-dimensional simplification of the pore
[formula] This can be further simplified with the gradient is uniform across the pore to obtain
[formula] where x is the axis through the pore in m, cx is the concentration at both ends in mol/l, and h is the RWM thickness in m. Then from the definition of flux
[formula] the permeability of the membrane is Flux=−PA(c1−c0) (5) where P=D/h is the permeability in m/s.
Thus the permeability of one pore can be estimated from the diffusion coefficient and the thickness of the membrane (10 μm, guinea pig).

## C[C@@H]1C[C@H]2[C@@H]3CCC4=CC(=O)C=C[C@]4(C)[C@@]3(F)[C@@H](O)C[C@]2(C)[C@@]1(O)C(=O)CO [Dexamethasone]
[1]
  PRWM: 5.0~35.0 × 10^−8 m/s

## CCN(CC)c1ccc2c(-c3ccccc3C(=O)O)c3ccc(=[N+](CC)CC)cc-3oc2c1.[Cl-] [Rhodamine B]
[2]; 10 μm needle, 30 × 47 μm perforation
  enhancement in diffusion: 160 ×
[2]; 100 μm needle, 240 × 460 μm elliptical perforation
  enhancement in diffusion: 3500 ×
[2]; guinea pig
  Microperforated KP: 3.21×10^−6 m/s
[2]; membranes with a small microperforation
  time required to reach 250 μM: 8.5 days
[2]; unperforated membrane, 250 μM = ½ applied concentration
  time required to reach 250 μM: 3.7 years
[3]
  Permeability KP RWM: 0.51 ± 0.41 10^−8 ms^−1
  permeability across the perforation itself: 8.3±2.2×10^−5 m/s
  permeability across the perforation relative to intact membrane: 16,000 times
  permeability coefficient of the RWM with microperforations: 18.1±6.1×10^−8 m/s
[3]; 3×3 array of perforations
  time to reach 10 μM: 30 min
[3]; intact membrane
  time to diffuse 10 μM across the RWM: 7 days
[3]; single 12.5 μm tip microperforation, 0.22% of membrane
  increase in permeability / enhancement in diffusion with microperforation vs intact RWM: 35 times
[3]; single microperforation of approximately 2.5×10^−3 mm^2
  time to diffuse 10 μM across the RWM: under 5 hours
[3]; three perforations
  time to reach 10 μM: 90 min
[4]
  Diffusion Coefficient in water at 25° C. (298 K): 4.5 ± 0.4 10^−6 cm^2s^−1 and 4.27 ± 0.04 10^−6 cm^2s^−1
[5]; not told
  predicted value of pore permeability based on the diffusion coefficient: 4×10^−5 m/s

## C[N+](C)(C)c1ccccc1 [TMPA]
[4]
  D: 1.01 × 10^−9 m2/s
[1]; guinea pig model
  permeability of the RWM: 1.9×10^−8 m/s
[1]
  PRWM: 1.9 × 10^−8 m/s
[5]
  Ppore: 1.01 × 10^−4 m/s

## Gentamicin
[4]
  D: 6.82 × 10^−10 m2/s
  Diffusion Coefficient in water at 25° C. (298 K): 6.82 10^−6 cm^2s^−1
[1]
  PRWM: 3.5 ± 4.6 × 10^−8 m/s
[5]
  Ppore: 6.82 × 10^−5 m/s
